From US9957270B2, “Fused pyrimidine-based hydroxamate derivatives” (Agency for Science, Technology and Research, priority 2014, dated 2018) come the findings set out here.

The subject of one assay is Daudi. The assay can be described thus: Anti-proliferative assay (cellular IC50), Daudi. The settings on record: Homo sapiens, read-out: In Vitro Cellular IC50 Daudi.
In assay [1] the test system is MV-4-11 cells. The assay can be described thus: Cell viability/cytotoxicity assay (CytoTox-Glo), MV-4-11 cells. The settings on record: MV-4-11 cells, 48 h, CytoTox-Glo, read-out: cell death potency EC50. It is filed as cell-based, human. On the procedure: Cells are cultivated and treated with test compounds in 96-well plates as described in the above Cell Culture and Anti-Proliferative Assays section, the content of dead cells and viable cells are measured using CytoTox-Glo™ Cytotoxicity Assay kit (Promega) per manufacture's protocol. Briefly, CytoTox-Glo™ Cytotoxicity Assay Reagent (48 μL/well) is added to the cells in 96-well plate and the luminescent signals are recorded using a BioTek Synergy H4 reader, then Lysis Reagent (48 μL/well) is added and the luminescent signals derived from both dead and viable cells are recorded. Viability can be calculated by subtracting the luminescent signal resulting from experimental cell death from total luminescent values. Staurosporine is used as positive control.
Fold of cell death of treated vs untreated was monitored at different time points. […] Y Axis is expressed as Mean±SD if applicable.

The subject of the next assay is NCI-H460. The assay can be described thus: Anti-proliferative assay (cellular IC50), NCI-H460. The settings on record: Homo sapiens, NCI-H460, read-out: In Vitro Cellular IC50 NCI-H460.
In a further assay the test system is HuH-7. The assay can be described thus: Anti-proliferative assay (cellular IC50), HuH-7. As to conditions: Homo sapiens, Huh-7, read-out: In Vitro Cellular IC50 HuH-7.
Another assay concerns U138MG. Description: Anti-proliferative assay (cellular IC50), U138MG. The settings on record: Homo sapiens, U138-MG, read-out: In Vitro Cellular IC50 U138MG.
The subject of assay [2] is MV-4-11 cells. The assay can be described thus: Caspase activity assay, MV-4-11 cells. The settings on record: MV-4-11 cells; for EC50: maximal activity at 24 h, read-out: EC50 induction of caspase activity. It is filed as cell-based, human. On the procedure:
(§1) Cells are cultivated and treated with test compounds in 96-well plates as described in the above Cell Culture and Anti-Proliferative Assays section. […] The incubation time can be extended up to overnight (18 h) if the Caspase activity is low. Staurosporine is used as positive control.
(§2) Y Axis is expressed as Mean±SD if applicable.

The subject of a further assay is A549. The assay can be described thus: Anti-proliferative assay (cellular IC50), A549. As to conditions: Homo sapiens, A549, read-out: In Vitro Cellular IC50 A549.
The test system of another assay is HEL9217. The assay can be described thus: Anti-proliferative assay (cellular IC50), HEL9217. The settings on record: Homo sapiens, HEL 92.1.7, read-out: In Vitro Cellular IC50 HEL9217.
Another assay concerns PC-3 cells. Description: Caspase activity assay, PC-3 cells. The settings on record: maximal caspase activity at 48 h. It is filed as cell-based, human. Here is the method:
as §1, §2

The subject of another assay is HCCLM3. The assay can be described thus: Anti-proliferative assay (cellular IC50), HCCLM3. The settings on record: Homo sapiens, HCCLM3, read-out: In Vitro Cellular IC50 HCCLM3.
In the next assay the target is T1, PI3Kα (Homo sapiens, UniProt P42336).
T1 construct: purchased Invitrogen, or BPS Bioscience Inc., or SignalChem PV4788 / 40620 / P27-18H
T1 sequence (P42336 whole entry): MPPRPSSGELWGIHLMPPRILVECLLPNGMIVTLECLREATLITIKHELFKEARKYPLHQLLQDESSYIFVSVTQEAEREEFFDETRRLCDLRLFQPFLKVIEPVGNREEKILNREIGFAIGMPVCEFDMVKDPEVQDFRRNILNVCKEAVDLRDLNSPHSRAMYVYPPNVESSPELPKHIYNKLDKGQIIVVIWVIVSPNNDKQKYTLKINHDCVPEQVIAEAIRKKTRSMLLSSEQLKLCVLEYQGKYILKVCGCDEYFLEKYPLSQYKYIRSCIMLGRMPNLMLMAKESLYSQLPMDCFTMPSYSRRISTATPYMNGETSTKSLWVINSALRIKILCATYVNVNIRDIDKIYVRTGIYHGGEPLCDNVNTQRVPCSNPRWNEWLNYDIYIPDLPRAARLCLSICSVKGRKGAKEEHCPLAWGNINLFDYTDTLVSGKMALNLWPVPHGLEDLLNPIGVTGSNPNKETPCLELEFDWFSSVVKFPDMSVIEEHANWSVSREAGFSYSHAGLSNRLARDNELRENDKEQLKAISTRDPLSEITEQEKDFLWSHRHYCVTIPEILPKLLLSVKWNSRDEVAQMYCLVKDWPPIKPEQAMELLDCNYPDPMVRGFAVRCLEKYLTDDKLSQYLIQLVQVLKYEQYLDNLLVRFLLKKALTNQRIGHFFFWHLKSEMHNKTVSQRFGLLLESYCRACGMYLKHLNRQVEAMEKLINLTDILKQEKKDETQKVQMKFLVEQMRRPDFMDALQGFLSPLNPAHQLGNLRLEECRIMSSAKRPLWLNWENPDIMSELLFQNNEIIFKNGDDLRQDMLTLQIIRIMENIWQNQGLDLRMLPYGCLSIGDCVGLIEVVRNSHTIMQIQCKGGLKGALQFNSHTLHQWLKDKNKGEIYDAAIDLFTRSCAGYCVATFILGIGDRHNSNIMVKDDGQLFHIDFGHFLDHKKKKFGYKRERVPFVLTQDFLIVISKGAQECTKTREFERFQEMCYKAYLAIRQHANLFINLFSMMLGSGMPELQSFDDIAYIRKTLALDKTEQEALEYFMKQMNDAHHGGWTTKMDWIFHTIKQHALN
T1 sequence (P27986 whole entry partner): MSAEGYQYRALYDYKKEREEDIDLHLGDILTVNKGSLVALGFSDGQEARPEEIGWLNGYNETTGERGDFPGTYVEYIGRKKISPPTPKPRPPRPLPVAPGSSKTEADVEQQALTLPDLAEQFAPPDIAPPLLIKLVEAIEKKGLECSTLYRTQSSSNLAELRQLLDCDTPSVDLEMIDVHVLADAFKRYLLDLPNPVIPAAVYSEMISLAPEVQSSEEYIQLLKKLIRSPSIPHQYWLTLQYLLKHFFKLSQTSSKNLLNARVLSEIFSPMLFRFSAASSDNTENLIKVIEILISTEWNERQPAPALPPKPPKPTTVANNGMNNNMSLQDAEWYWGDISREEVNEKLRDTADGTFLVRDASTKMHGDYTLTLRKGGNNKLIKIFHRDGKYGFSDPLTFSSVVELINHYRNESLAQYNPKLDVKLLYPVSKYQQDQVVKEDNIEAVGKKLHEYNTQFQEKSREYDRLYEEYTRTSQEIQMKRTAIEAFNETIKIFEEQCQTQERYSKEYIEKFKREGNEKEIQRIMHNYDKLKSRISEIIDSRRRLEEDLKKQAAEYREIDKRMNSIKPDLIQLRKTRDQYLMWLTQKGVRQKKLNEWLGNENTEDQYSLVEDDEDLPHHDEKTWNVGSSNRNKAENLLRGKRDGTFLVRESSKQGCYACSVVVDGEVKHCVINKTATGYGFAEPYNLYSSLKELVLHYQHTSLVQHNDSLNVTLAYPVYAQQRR
The assay can be described thus: Kinase enzyme assay (ADP-Glo), PI3Kα. The assay is classed as biochemical. As to conditions: read-out: In Vitro Enzymatic IC50 PI3Kα.

The next assay deals with T2, p110α(H1047R)/p85α (Homo sapiens, UniProt P42336, H1047R).
T2 construct: purchased BPS 40641
T2 sequence (P42336 whole entry H1047R): as the sequence (P42336 whole entry) above, with H1047R counted along it
T2 sequence (P27986 whole entry partner): as the sequence (P27986 whole entry partner) above
The assay can be described thus: Kinase enzyme assay (ADP-Glo), PI3Kα (H1047R). The assay is classed as biochemical. The settings on record: read-out: In Vitro Enzymatic IC50 PI3Kα (H1047R).

The target of assay [3] is HDAC (HeLa nuclear extracts). Description: HDAC enzyme assay, HeLa nuclear extracts. As to conditions: read-out: In Vitro Enzymatic IC50 HDAC (HeLa).
The target in another assay is HDAC1 (Homo sapiens, UniProt Q13547). The assay can be described thus: HDAC enzyme assay, recombinant HDAC1.
Chain of HDAC1 (Q13547 whole entry): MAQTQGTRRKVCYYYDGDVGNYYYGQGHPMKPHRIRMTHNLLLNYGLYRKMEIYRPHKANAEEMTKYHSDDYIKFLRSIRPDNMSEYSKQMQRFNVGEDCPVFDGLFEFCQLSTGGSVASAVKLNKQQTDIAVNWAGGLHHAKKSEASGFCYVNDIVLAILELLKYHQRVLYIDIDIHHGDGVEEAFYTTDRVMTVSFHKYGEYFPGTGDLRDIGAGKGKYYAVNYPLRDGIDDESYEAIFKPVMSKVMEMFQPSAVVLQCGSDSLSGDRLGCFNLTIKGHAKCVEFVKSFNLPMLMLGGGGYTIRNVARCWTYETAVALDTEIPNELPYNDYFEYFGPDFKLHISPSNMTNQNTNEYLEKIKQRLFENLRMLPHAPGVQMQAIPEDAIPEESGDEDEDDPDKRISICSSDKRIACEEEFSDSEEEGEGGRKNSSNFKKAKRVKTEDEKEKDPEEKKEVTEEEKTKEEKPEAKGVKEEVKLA
Another assay deals with T3, HDAC6 (Homo sapiens, UniProt Q9UBN7).
T3 sequence (Q9UBN7 1-1215): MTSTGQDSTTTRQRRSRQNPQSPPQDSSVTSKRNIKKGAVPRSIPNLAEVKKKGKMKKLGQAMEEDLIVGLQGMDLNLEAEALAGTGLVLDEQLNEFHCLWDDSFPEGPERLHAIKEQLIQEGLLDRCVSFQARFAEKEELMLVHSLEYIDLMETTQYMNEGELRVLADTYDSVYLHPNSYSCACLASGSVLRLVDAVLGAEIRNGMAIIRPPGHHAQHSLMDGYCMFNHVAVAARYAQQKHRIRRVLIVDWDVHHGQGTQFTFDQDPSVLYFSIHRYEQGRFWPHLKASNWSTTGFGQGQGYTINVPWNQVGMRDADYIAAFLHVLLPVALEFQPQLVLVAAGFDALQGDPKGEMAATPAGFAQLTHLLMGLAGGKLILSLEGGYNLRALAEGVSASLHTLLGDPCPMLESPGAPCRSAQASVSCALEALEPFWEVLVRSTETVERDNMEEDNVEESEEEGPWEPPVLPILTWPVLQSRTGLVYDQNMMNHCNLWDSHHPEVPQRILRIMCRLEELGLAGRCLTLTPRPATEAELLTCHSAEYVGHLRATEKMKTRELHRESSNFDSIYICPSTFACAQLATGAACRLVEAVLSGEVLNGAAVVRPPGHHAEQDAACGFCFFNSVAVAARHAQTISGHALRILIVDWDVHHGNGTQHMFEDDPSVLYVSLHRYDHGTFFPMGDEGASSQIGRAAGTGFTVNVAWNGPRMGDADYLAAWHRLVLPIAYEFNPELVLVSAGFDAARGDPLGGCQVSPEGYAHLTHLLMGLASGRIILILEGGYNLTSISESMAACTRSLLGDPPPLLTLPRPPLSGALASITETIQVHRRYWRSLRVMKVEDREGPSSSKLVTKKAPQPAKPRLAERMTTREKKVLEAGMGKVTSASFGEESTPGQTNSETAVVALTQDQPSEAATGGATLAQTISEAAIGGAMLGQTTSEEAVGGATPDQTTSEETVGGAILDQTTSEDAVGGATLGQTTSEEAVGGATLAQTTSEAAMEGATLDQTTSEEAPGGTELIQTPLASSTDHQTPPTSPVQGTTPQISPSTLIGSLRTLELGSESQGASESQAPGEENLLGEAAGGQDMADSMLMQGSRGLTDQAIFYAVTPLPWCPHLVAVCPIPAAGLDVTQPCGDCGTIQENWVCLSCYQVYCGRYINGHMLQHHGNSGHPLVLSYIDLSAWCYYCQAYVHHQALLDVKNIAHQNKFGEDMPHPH
The assay can be described thus: HDAC enzyme assay, recombinant HDAC6.

Description for A549: (§3) Cells were cultivated at 37° C., 5% CO2 in media containing 10% FBS and 2 mM glutamine Cells were routinely monitored with MycoAlert™ PLUS Mycoplasma Detection Kit (Lonza Walkersville, Inc.) to make sure they were mycoplasma free. Antibiotics (100 U/mL of penicillin and 100 μg/mL of streptomycin) were only added to the media used for compound dilution and cells in 96-well assay plates.
(§4) For a typical screening experiment, cells (100 μL/well) are inoculated into 96 well microtiter plates at plating densities ranging from 2,000 to 30,000 cells/well depending on the doubling time of individual cell lines and assay linearity. […] Suspension cells are treated with test compounds immediately after cell inoculation.
(§5) Test compounds are serially diluted (3-fold or 4-fold, 8-concentration) using the same media and added to the plates (15 to 25 μL/well). After 72 h of cultivation, the plates are assayed for cell cytotoxicity/viability by using the following two methods.
(§6) Cells in plates are fixed with cold trichloroacetic acid (TCA) (50% w/v in DI water, 1/4 volume of the medium in each well), and incubated at 4° C. for 1 h (adherent cells) or 2 h (suspension cells). The plates are washed 5 times (tap water×3, DI water×2) and air-dried. SRB solution 0.4% (w/v) in 1% acetic acid is added to each well (60 μL/well) and the plates are incubated at room temperature for 30 min, then washed with 1% acetic acid solution 4 times, and air-dried.
(§7) The plates are added CellTiter-Glo® Reagent (95 μL/well) and read the luminescence on a BioTek H4 reader per manufacture's protocol.
(§8) The raw data are processed using BioTek's Software Gen5 (v2.03.01) to generate inhibitory IC50 values.
Description for Daudi: as §3, §4, §5, §6, §7, §8
Description for HCCLM3: as §3, §4, §5, §6, §7, §8
Description for HEL9217: as §3, §4, §5, §6, §7, §8
Description for HuH-7: as §3, §4, §5, §6, §7, §8
Description for NCI-H460: as §3, §4, §5, §6, §7, §8
Description for U138MG: as §3, §4, §5, §6, §7, §8

For `CS(=O)(=O)N1CCN(Cc2cc3nc(-c4cccc5[nH]ncc45)nc(N4CCOCC4)c3s2)CC1` [GDC-0941, reference compound], the half-inhibitory concentration (IC50) with Daudi was below 500 nM; in the assay on NCI-H460 it was below 500 nM; in the assay on HuH-7, 500 to 2000 nM; with U138MG it was 500 to 2000 nM; with A549, below 500 nM; with HEL9217, 2000 to 10000 nM. Moreover, in the assay on HCCLM3, the IC50 lay within 500 to 2000 nM. In addition, the EC50 in the assay with MV-4-11 cells [1] (Homo sapiens, MV4-11) stood at 2750 nM; with MV-4-11 cells [2] (Homo sapiens, MV4-11), 12.7 µM. Further, the “Induction of caspase activity (comparison)” value was “very weak activity and potency” in the assay with MV-4-11 cells [2]; “very weak activity” in the assay with PC-3 cells.
`CC(C)n1cnc2c(-c3cccc(OCCCC(=O)NO)c3)nc(N3CCOCC3)nc21` [compound 1]: the IC50 was below 500 nM with Daudi; 500 to 2000 nM with NCI-H460; 500 to 2000 nM in the assay with HuH-7; 500 to 2000 nM in the assay on U138MG; 1000 to 10000 nM on PI3Kα; 500 to 2000 nM in the assay with A549. In addition, the IC50 lay in the range of 500 to 2000 nM with HEL9217; 1000 to 10000 nM on p110α(H1047R)/p85α; 10 to 100 nM in assay [3]; 2000 to 10000 nM in the assay on HCCLM3; 10 to 100 nM on HDAC1; 10 to 100 nM at HDAC6. For the same molecule, the EC50 in the assay on MV-4-11 cells [1] stood at 190 nM; with MV-4-11 cells [2] it was 0.52 µM. Also, the “Induction of caspase activity (comparison)” value with MV-4-11 cells [2] and in the assay on PC-3 cells was “more potent than vorinostat” in each case.
Turning to `CCn1c(CN(C)Cc2ccc(C(=O)NO)cc2)nc2c(N3CCOCC3)nc(-c3cnc(N)nc3)nc21` [compound 7], the IC50 was in the range of 10 to 100 nM on PI3Kα; 10 to 100 nM at p110α(H1047R)/p85α; 100 to 1000 nM in [3]; 10 to 100 nM on HDAC1; 10 to 100 nM on HDAC6.
